How the values were obtained:
[1] = tested on: L1-Larven von Lucilia sericata; assay: B-3 action against L1 larvae in larval culture medium; assay type: in vivo; conditions: 100 ppm, after 4 days
Description: B-3. Wirkung gegen L1-Larven von Lucilia sericata
1 ml einer wässrigen Suspension der zu prüfenden Aktivsubstanz wird so mit 3 ml eines speziellen Larvenzuchtmediums bei ca. 50°C vermischt, dass ein Homogenisat von wahlweise 250 ppm oder 125 ppm Wirkstoffgehalt entsteht. In jede Reagenzglas-Probe werden ca. 30 Lucilia-Larven (L1) eingesetzt. Nach 4 Tagen wird die Mortalitätsrate bestimmt. Die Verbindungen der Formel 1 erzielten mit 250 ppm, die Verbindungen Nr. 1.1, 1.3, 1.15, 1.22, 1.27, 1.35, 1.37, 1.38 und 1.43 bereits bei 100 ppm eine Wirkung von 100 %.

[2] = tested on: Boophilus microplus (Biarra-Stamm); assay: B-4 acaricidal action, injection into engorged female ticks; assay type: in vivo; conditions: dose per tick at which 9 of 10 females lay non-hatching eggs after 30 days
Description: B-4. Akarizide Wirkung gegen Boophilus microplus (Biarra-Stamm
Auf einer PVC-Platte wird waagrecht ein Klebstreifen so befestigt, das darauf 10 mit Blut vollgesogene Zecken-Weibchen von Boophilus microplus (Biarra-Stamm) nebeneinander in einer Reihe mit dem Rücken aufgeklebt werden können. Jeder Zecke wird mit einer Injektionsnadel 1 µl einer Flüssigkeit injiziert, die eine 1:1-Mischung von Polyethylenglykol und Aceton darstellt und in der als bestimmte Wirkstoffmenge […] pro Zecke gelöst ist. Kontrolltiere erhalten eine wirkstofffreie Injektion. Nach der Behandlung werden die Tiere unter Normalbedingungen in einem Insektarium bei ca. 28°C und 80 % relativer Luftfeuchtigkeit gehalten, bis die Eiablage erfolgt und die Larven aus den Eiern der Kontrolltiere geschlüpft sind.
Die Aktivität einer geprüften Substanz wird mit der IR90 bestimmt, d.h. es wird jene Wirkstoffdosis ermittelt, bei der noch nach 30 Tagen 9 von 10 Zeckenweibchen (= 90 %) Eier ablegen, die nicht schlupffähig sind.

[3] = tested on: Haemonchus contortus und Trychostrongylus colubriformis; assay: B-5 test on sheep infected with nematodes, worm egg count in faeces; assay type: in vivo, Schafe; conditions: single dose
Description: B-5. Versuch an mit Nematoden (Haemonchus concortus und Trichostrongylus colubriformis) infizierten Schafen
Der Wirkstoff wird als Suspension formuliert mit einer Magensonde oder durch Injektion in den Pansen eines Schafes gegeben, das mit Haemonchus contortus und Trychostrongylus colubriformis künstlich infiziert worden ist. Pro Dosis werden 1 bis 3 Tiere verwendet. Jedes Schaf wird nur einmal mit einer einzigen Dosis behandelt, und zwar wahlweise mit 2 mg oder 1 mg/kg Körpergewicht. Die Evaluierung erfolgt durch Vergleich der Anzahl der vor und nach Behandlung im Kot der Schafe ausgeschiedenen Wurmeier.
Gleichzeitig und gleichartig infizierte aber unbehandelte Schafe dienen als Kontrolle. Schafe, die mit einer der Verbindungen der Formel I bei 1 mg/kg behandelt wurden, zeigten im Vergleich zu unbehandelten, aber infizierten Vergleichsgruppen keinen Nematodenbefall (= komplette Reduktion der Wurmeier im Kot). […] Schafe, die mit 0,1 mg/kg Köpergewicht der Verbindung Nr. 1.1 (A) und der Verbindung Nr. 1.15 (B) behandelt wurden, zeigten im Vergleich zur Kontrolle eine 77%ige (A) und eine 97Xige (B) Wirkung, während 5-0-(2,3,4,6-Tetra-0-acetyl-1-0-glucanopyranosyl)-milbemycin A3 bei dieser Konzentration unwirksam war.

| Substance | Wirkung (Mortalitätsrate) [1] | IR90 [2] | Wirkung im Vergleich zur Kontrolle ([3]; 0,1 mg/kg Körpergewicht) | Wirkung (Reduktion der Wurmeier im Kot) ([3]; 2 mg/kg) |
| --- | --- | --- | --- | --- |
| 5-0-(1-0-Galactopyranosyl)-milbemycin D [1.38] | 100% | 0,5 µg | – | – |
| 5-0-(2,3,4,6-Tetra-0-acetyl-1-0-glucanopyranosyl)-milbemycin A3 [Tetraacetylglucopyranosyl-milbemycin A3] | – | – | unwirksam | annähernd wirkungslos |
